Reference: PubChem BioAssay AID2060508 (Molecular Pharmacology Branch, DTP, NCI, 2025)

test system: 454973-116-R2-J3-PDC spheroids, viability, % test/control; assay: Anticancer human tumor 454973-116-R2-J3-PDC patient-derived pancreatic carcinoma cell line growth inhibition [GQUAD]; conditions: second compound 0.0316 µM; first compound 3.16 µM; active compounds read low; spheroids with HUVEC and MSC
Excerpt: DNA G-quadruplex Stabilizer Agents in Combinations in Complex Spheroids
A high-throughput screen of multi-cell type tumor spheroids was designed to identify active combinations of DNA G-quadruplex stabilizer agents and targeted small molecules. Complex spheroids include a stromal component modeled by human endothelial cells (HUVEC) and fibroblasts modeled by human mesenchymal stem cells (MSCs). The concentration ranges selected for each drug and investigational agent were based upon clinically achievable concentrations if the clinical Cmax of the agent was known.
Compounds. The drugs and investigational agents: pidnarulex (CX-5461; NSC782164), APTO-253 (NSC789042), BRACO-19 (NSC847499), peposertib (NSC802822), ceralasertib (NSC780249), elimusertib (NSC800525), camonsertib (NSC841442), AZD-1390 (NSC803789), olaparib (NSC753686), talazoparib (NSC767125), ART-558 (NSC835418), sotorasib (NSC818433), MRTX-1133 (NSC836407), SN-38 (NSC673596), topotecan (NSC609699), etoposide (NSC141540), doxorubicin (NSC123127), gemcitabine (NSC613327), 5-fluorouracil (NSC19893), paclitaxel (NSC125973), vemurafenib (NSC761431), panobinostat (NSC761190), R-306465 (JNJ-16241199; NSC773264), adavosertib (NSC754352), TP-3654 (NSC805149), carboplatin (NSC241240), KSQ-4279 (NSC840948), and staurosporine (NSC755774) were obtained from the National Cancer Institute (NCI) Developmental Therapeutics Program Chemical Repository (34). The FDA-approved anticancer drug set is available from the NCI Developmental Therapeutics Program. […] The stock solutions were prepared in dimethyl sulfoxide (DMSO, Sigma-Aldrich, St. Louis, MO, cat. D2650) at 800-fold the tested concentration and stored at -70 degrees C prior to their use. All drugs and investigational agents were tested over a range starting from a high concentration at or near the clinical Cmax and decreasing in half-log increments. If the clinical Cmax for an agent had not been determined, the highest concentration tested was 10 microM.
2.3 Cell Culture. All cells were maintained in an incubator at 37 degrees C and 5% CO2 with 95% humidity. The PDC lines were cultured according to standard operating procedures established by the NCI PDMR. All PDCs were thawed and cultured in Matrigel-coated flasks prepared with a working solution of 1X Ham's F-12 nutrient mix, without supplementation (Invitrogen, cat. 11765054), 100 U/mL penicillin-streptomycin (Invitrogen, cat. 15140122), and 2.5% Matrigel (Corning Inc., cat. 354248) for the first three passages. The 857933-349-R-J2-PDC line was cultured in 6C/Colon 1B media, which includes advanced DMEM/F-12 (Thermo Fisher Scientific, cat. 12634028), 10 mM HEPES (Thermo Fisher Scientific, cat. 15630080), 1X GlutaMAX supplement (Thermo Fisher Scientific, cat. 35050061), 0.1 mg/mL primocin (InvivoGen, cat. ant-pm-2), 10% defined fetal bovine serum, heat inactivated (HyClone Laboratories Inc., cat. SH30070.03HI), 50% L-WRN conditioned media (ATCC, cat. CRL-3276), 1.25 mM N-Acetyl-L-cysteine (Sigma-Aldrich, cat. A9165), 10 mM nicotinamide (Sigma-Aldrich, cat. N0636), 1X B-27 supplement (Thermo Fisher Scientific, cat. 17504044), 1X N-2 supplement (Thermo Fisher Scientific, cat. 17502048), 10 microM Y-27632 dihydrochloride (Tocris Bioscience, cat. 1254), and 50 ng/mL human EGF recombinant protein (Thermo Fisher Scientific, cat. PHG0311). The 485176-168-R4-J1-PDC line was cultured in Panc media, which includes all 6C/Colon 1B media components plus 100 ng/mL human FGF-10 (Thermo Fisher Scientific, cat. 100-26), 500 nM SB-431542 (Selleckchem, cat. S1067), and gastrin (Tocris, cat. 3006).
[…]
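Further: spheroids exposed to compounds for seven days.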

Row | Structure (SMILES) | viability, T/C [%]
1 | COc1ccc([C@@H](O)c2cc(-c3ncnc4cc(N5CCOCC5)ccc34)c(F)cc2Cl)nn1 + Cc1cnc(CNC(=O)c2c(=O)c3ccc(N4CCCN(C)CC4)nc3n3c2sc2ccccc23)cn1 | 34
2 | O=C(c1cc(Cc2n[nH]c(=O)c3ccccc23)ccc1F)N1CCN(C(=O)C2CC2)CC1 + Cc1cnc(CNC(=O)c2c(=O)c3ccc(N4CCCN(C)CC4)nc3n3c2sc2ccccc23)cn1 | 80.9

same assay, conditions: second compound 0.0316 µM; first compound 10 µM; active compounds read low; spheroids with HUVEC and MSC

Row | Structure (SMILES) | viability, T/C [%]
3 | CC1COCCN1c1cc(C2(O)CC3CCC(C2)O3)c2cnn(-c3ccn[nH]3)c2n1 (configuration not stated) + Cc1cnc(CNC(=O)c2c(=O)c3ccc(N4CCCN(C)CC4)nc3n3c2sc2ccccc23)cn1 | 9.73
4 | COc1ccc([C@@H](O)c2cc(-c3ncnc4cc(N5CCOCC5)ccc34)c(F)cc2Cl)nn1 + Cc1cnc(CNC(=O)c2c(=O)c3ccc(N4CCCN(C)CC4)nc3n3c2sc2ccccc23)cn1 | 33.9
5 | O=C(c1cc(Cc2n[nH]c(=O)c3ccccc23)ccc1F)N1CCN(C(=O)C2CC2)CC1 + Cc1cnc(CNC(=O)c2c(=O)c3ccc(N4CCCN(C)CC4)nc3n3c2sc2ccccc23)cn1 | 46.5

same assay, conditions: second compound 0.1 µM; first compound 0.0316 µM; active compounds read low; spheroids with HUVEC and MSC

Row | Structure (SMILES) | viability, T/C [%]
6 | CC1COCCN1c1cc(C2(O)CC3CCC(C2)O3)c2cnn(-c3ccn[nH]3)c2n1 (configuration not stated) + Cc1cnc(CNC(=O)c2c(=O)c3ccc(N4CCCN(C)CC4)nc3n3c2sc2ccccc23)cn1 | 35
7 | COc1ccc([C@@H](O)c2cc(-c3ncnc4cc(N5CCOCC5)ccc34)c(F)cc2Cl)nn1 + Cc1cnc(CNC(=O)c2c(=O)c3ccc(N4CCCN(C)CC4)nc3n3c2sc2ccccc23)cn1 | 83.5
8 | O=C(c1cc(Cc2n[nH]c(=O)c3ccccc23)ccc1F)N1CCN(C(=O)C2CC2)CC1 + Cc1cnc(CNC(=O)c2c(=O)c3ccc(N4CCCN(C)CC4)nc3n3c2sc2ccccc23)cn1 | 81.1

same assay, conditions: second compound 0.1 µM; first compound 0.1 µM; active compounds read low; spheroids with HUVEC and MSC

Row | Structure (SMILES) | viability, T/C [%]
9 | CC1COCCN1c1cc(C2(O)CC3CCC(C2)O3)c2cnn(-c3ccn[nH]3)c2n1 (configuration not stated) + Cc1cnc(CNC(=O)c2c(=O)c3ccc(N4CCCN(C)CC4)nc3n3c2sc2ccccc23)cn1 | 22.3
10 | COc1ccc([C@@H](O)c2cc(-c3ncnc4cc(N5CCOCC5)ccc34)c(F)cc2Cl)nn1 + Cc1cnc(CNC(=O)c2c(=O)c3ccc(N4CCCN(C)CC4)nc3n3c2sc2ccccc23)cn1 | 71.3
11 | O=C(c1cc(Cc2n[nH]c(=O)c3ccccc23)ccc1F)N1CCN(C(=O)C2CC2)CC1 + Cc1cnc(CNC(=O)c2c(=O)c3ccc(N4CCCN(C)CC4)nc3n3c2sc2ccccc23)cn1 | 80.4

same assay, conditions: second compound 0.1 µM; first compound 0.316 µM; active compounds read low; spheroids with HUVEC and MSC

Row | Structure (SMILES) | viability, T/C [%]
12 | CC1COCCN1c1cc(C2(O)CC3CCC(C2)O3)c2cnn(-c3ccn[nH]3)c2n1 (configuration not stated) + Cc1cnc(CNC(=O)c2c(=O)c3ccc(N4CCCN(C)CC4)nc3n3c2sc2ccccc23)cn1 | 19.1
13 | COc1ccc([C@@H](O)c2cc(-c3ncnc4cc(N5CCOCC5)ccc34)c(F)cc2Cl)nn1 + Cc1cnc(CNC(=O)c2c(=O)c3ccc(N4CCCN(C)CC4)nc3n3c2sc2ccccc23)cn1 | 46
14 | O=C(c1cc(Cc2n[nH]c(=O)c3ccccc23)ccc1F)N1CCN(C(=O)C2CC2)CC1 + Cc1cnc(CNC(=O)c2c(=O)c3ccc(N4CCCN(C)CC4)nc3n3c2sc2ccccc23)cn1 | 72.2

same assay, conditions: second compound 0.1 µM; first compound 1 µM; active compounds read low; spheroids with HUVEC and MSC

Row | Structure (SMILES) | viability, T/C [%]
15 | CC1COCCN1c1cc(C2(O)CC3CCC(C2)O3)c2cnn(-c3ccn[nH]3)c2n1 (configuration not stated) + Cc1cnc(CNC(=O)c2c(=O)c3ccc(N4CCCN(C)CC4)nc3n3c2sc2ccccc23)cn1 | 19
16 | COc1ccc([C@@H](O)c2cc(-c3ncnc4cc(N5CCOCC5)ccc34)c(F)cc2Cl)nn1 + Cc1cnc(CNC(=O)c2c(=O)c3ccc(N4CCCN(C)CC4)nc3n3c2sc2ccccc23)cn1 | 35.3
17 | O=C(c1cc(Cc2n[nH]c(=O)c3ccccc23)ccc1F)N1CCN(C(=O)C2CC2)CC1 + Cc1cnc(CNC(=O)c2c(=O)c3ccc(N4CCCN(C)CC4)nc3n3c2sc2ccccc23)cn1 | 65.5

same assay, conditions: second compound 0.1 µM; first compound 3.16 µM; active compounds read low; spheroids with HUVEC and MSC

Row | Structure (SMILES) | viability, T/C [%]
18 | CC1COCCN1c1cc(C2(O)CC3CCC(C2)O3)c2cnn(-c3ccn[nH]3)c2n1 (configuration not stated) + Cc1cnc(CNC(=O)c2c(=O)c3ccc(N4CCCN(C)CC4)nc3n3c2sc2ccccc23)cn1 | 17.7
19 | COc1ccc([C@@H](O)c2cc(-c3ncnc4cc(N5CCOCC5)ccc34)c(F)cc2Cl)nn1 + Cc1cnc(CNC(=O)c2c(=O)c3ccc(N4CCCN(C)CC4)nc3n3c2sc2ccccc23)cn1 | 32.1
20 | O=C(c1cc(Cc2n[nH]c(=O)c3ccccc23)ccc1F)N1CCN(C(=O)C2CC2)CC1 + Cc1cnc(CNC(=O)c2c(=O)c3ccc(N4CCCN(C)CC4)nc3n3c2sc2ccccc23)cn1 | 65.8

same assay, conditions: second compound 0.1 µM; first compound 10 µM; active compounds read low; spheroids with HUVEC and MSC

Row | Structure (SMILES) | viability, T/C [%]
21 | CC1COCCN1c1cc(C2(O)CC3CCC(C2)O3)c2cnn(-c3ccn[nH]3)c2n1 (configuration not stated) + Cc1cnc(CNC(=O)c2c(=O)c3ccc(N4CCCN(C)CC4)nc3n3c2sc2ccccc23)cn1 | 12.7
22 | COc1ccc([C@@H](O)c2cc(-c3ncnc4cc(N5CCOCC5)ccc34)c(F)cc2Cl)nn1 + Cc1cnc(CNC(=O)c2c(=O)c3ccc(N4CCCN(C)CC4)nc3n3c2sc2ccccc23)cn1 | 30.1
23 | O=C(c1cc(Cc2n[nH]c(=O)c3ccccc23)ccc1F)N1CCN(C(=O)C2CC2)CC1 + Cc1cnc(CNC(=O)c2c(=O)c3ccc(N4CCCN(C)CC4)nc3n3c2sc2ccccc23)cn1 | 44.5

same assay, conditions: second compound 0.316 µM; first compound 0.0316 µM; active compounds read low; spheroids with HUVEC and MSC

Row | Structure (SMILES) | viability, T/C [%]
24 | CC1COCCN1c1cc(C2(O)CC3CCC(C2)O3)c2cnn(-c3ccn[nH]3)c2n1 (configuration not stated) + Cc1cnc(CNC(=O)c2c(=O)c3ccc(N4CCCN(C)CC4)nc3n3c2sc2ccccc23)cn1 | 29.6
25 | COc1ccc([C@@H](O)c2cc(-c3ncnc4cc(N5CCOCC5)ccc34)c(F)cc2Cl)nn1 + Cc1cnc(CNC(=O)c2c(=O)c3ccc(N4CCCN(C)CC4)nc3n3c2sc2ccccc23)cn1 | 70.8
26 | O=C(c1cc(Cc2n[nH]c(=O)c3ccccc23)ccc1F)N1CCN(C(=O)C2CC2)CC1 + Cc1cnc(CNC(=O)c2c(=O)c3ccc(N4CCCN(C)CC4)nc3n3c2sc2ccccc23)cn1 | 69.1

same assay, conditions: second compound 0.316 µM; first compound 0.1 µM; active compounds read low; spheroids with HUVEC and MSC

Row | Structure (SMILES) | viability, T/C [%]
27 | CC1COCCN1c1cc(C2(O)CC3CCC(C2)O3)c2cnn(-c3ccn[nH]3)c2n1 (configuration not stated) + Cc1cnc(CNC(=O)c2c(=O)c3ccc(N4CCCN(C)CC4)nc3n3c2sc2ccccc23)cn1 | 25.4
28 | COc1ccc([C@@H](O)c2cc(-c3ncnc4cc(N5CCOCC5)ccc34)c(F)cc2Cl)nn1 + Cc1cnc(CNC(=O)c2c(=O)c3ccc(N4CCCN(C)CC4)nc3n3c2sc2ccccc23)cn1 | 66.3
29 | O=C(c1cc(Cc2n[nH]c(=O)c3ccccc23)ccc1F)N1CCN(C(=O)C2CC2)CC1 + Cc1cnc(CNC(=O)c2c(=O)c3ccc(N4CCCN(C)CC4)nc3n3c2sc2ccccc23)cn1 | 67.4

same assay, conditions: second compound 0.316 µM; first compound 0.316 µM; active compounds read low; spheroids with HUVEC and MSC

Row | Structure (SMILES) | viability, T/C [%]
30 | CC1COCCN1c1cc(C2(O)CC3CCC(C2)O3)c2cnn(-c3ccn[nH]3)c2n1 (configuration not stated) + Cc1cnc(CNC(=O)c2c(=O)c3ccc(N4CCCN(C)CC4)nc3n3c2sc2ccccc23)cn1 | 24.9
31 | COc1ccc([C@@H](O)c2cc(-c3ncnc4cc(N5CCOCC5)ccc34)c(F)cc2Cl)nn1 + Cc1cnc(CNC(=O)c2c(=O)c3ccc(N4CCCN(C)CC4)nc3n3c2sc2ccccc23)cn1 | 49.6
32 | O=C(c1cc(Cc2n[nH]c(=O)c3ccccc23)ccc1F)N1CCN(C(=O)C2CC2)CC1 + Cc1cnc(CNC(=O)c2c(=O)c3ccc(N4CCCN(C)CC4)nc3n3c2sc2ccccc23)cn1 | 61.7
